Reference: patent US9469650B2, “Melampomagnolide B derivatives” (BOARD OF TRUSTEES OF THE UNIVERSITY OF ARKANSAS, priority 2013, dated 2016)

Columns and labels:
MALME-3M = experiment: panel of 60 human tumor cell lines, growth inhibition (Melanoma); conditions: MALME-3M
HCT-15 [1] = system: HCT-15
HCT-15 [2] = experiment: panel of 60 human tumor cell lines, growth inhibition (Colon Cancer); conditions: HCT-15
RPMI-8226 = experiment: panel of 60 human tumor cell lines, growth inhibition (Leukemia); conditions: RPMI-8226

C=C1C(=O)O[C@H]2[C@H]1CC/C(COC(=O)N1CCC(F)(F)CC1)=C\CC[C@@]1(C)O[C@@H]21 [JVM 2-66]
CC50 (BT-549): 29.5 µM | CC50 (MCF7): 26.4 µM | CC50 (UACC-62): 23.2 µM | CC50 (UO-31): 22.2 µM | CC50 (HS 578T): > 100 µM | CC50 (SK-MEL-2): 37 µM | CC50 (NCI-H322M): 54.6 µM | CC50 (SN12C): 37.7 µM | CC50 (SK-OV-3): 63.8 µM | CC50 (DU-145): 28.9 µM | CC50 (NCI-H23): 48.2 µM | CC50 (NCI-H460): 72.6 µM | CC50 (U251): 52.1 µM | CC50 (TK-10): 23.5 µM | CC50 (786-0): 48.6 µM | CC50 (HT29): 40.3 µM | CC50 (MOLT-4): > 100 µM | GI50 (MALME-3M): 1.9 µM | TGI (MALME-3M): 4.82E−6 | Percent Growth (MALME-3M; Log10 Concentration −4.0): −72% | Percent Growth (MALME-3M; Log10 Concentration −5.0): −39% | Percent Growth (MALME-3M; Log10 Concentration −6.0): 84% | Percent Growth (MALME-3M; Log10 Concentration −7.0): 91% | Percent Growth (MALME-3M; Log10 Concentration −8.0): 99% | CC50 (NCI-H522): 6.08 µM | CC50 (SF-295): 51.5 µM | CC50 (NCI-H226): 10.9 µM | CC50 (HCT-15 [1]): 10 µM | CC50 (HOP-62): 58.3 µM | GI50 (HCT-15 [2]): 1.47 µM | TGI (HCT-15 [2]): 3.84E−6 | Percent Growth (HCT-15 [2]; Log10 Concentration −4.0): −86% | Percent Growth (HCT-15 [2]; Log10 Concentration −5.0): −50% | Percent Growth (HCT-15 [2]; Log10 Concentration −6.0): 70% | Percent Growth (HCT-15 [2]; Log10 Concentration −7.0): 94% | Percent Growth (HCT-15 [2]; Log10 Concentration −8.0): 100% | CC50 (SNB-75): 47.2 µM | CC50 (CAKI-1): 23.8 µM | CC50 (OVCAR-5): 48.1 µM | CC50 (A498): 28.9 µM | CC50 (PC-3): 53.8 µM | GI50 (RPMI-8226): 1.98 µM | TGI (RPMI-8226): 5.83E−6 | Percent Growth (RPMI-8226; Log10 Concentration −4.0): −46% | Percent Growth (RPMI-8226; Log10 Concentration −5.0): −25% | Percent Growth (RPMI-8226; Log10 Concentration −6.0): 81% | Percent Growth (RPMI-8226; Log10 Concentration −7.0): 97% | Percent Growth (RPMI-8226; Log10 Concentration −8.0): 98% | CC50 (SW-620): 17.9 µM | CC50 (MDA-MB-435): 95.1 µM | CC50 (HOP-92): 11.1 µM | CC50 (IGROV1): 59.7 µM | CC50 (SF-268): 56.5 µM | CC50 (UACC-257): 36.5 µM | CC50 (SK-MEL-5): 40.3 µM | CC50 (A549/ATCC): 66.2 µM | CC50 (M14): 41.7 µM | CC50 (OVCAR-8): 38.5 µM | CC50 (SK-MEL-28): 33 µM | CC50 (CCRF-CEM): 67.6 µM | CC50 (RXF 393): 5.33 µM | CC50 (SR): > 100 µM

C=C1C(=O)O[C@H]2[C@H]1CC/C(COC(=O)CCC(=O)N1CCC(C)CC1)=C\CC[C@@]1(C)O[C@@H]21 [JVM 2-70]
CC50 (BT-549): 29.3 µM | CC50 (MCF7): 64.1 µM | CC50 (UACC-62): 49.5 µM | CC50 (UO-31): 46.9 µM | CC50 (HS 578T): > 100 µM | CC50 (SK-MEL-2): 61 µM | CC50 (NCI-H322M): 65.1 µM | CC50 (SN12C): 51.9 µM | CC50 (SK-OV-3): > 100 µM | CC50 (DU-145): 45.9 µM | CC50 (NCI-H23): 64.3 µM | CC50 (NCI-H460): 89.4 µM | CC50 (U251): 59.7 µM | CC50 (TK-10): 36.3 µM | CC50 (786-0): 58 µM | CC50 (HT29): 44.5 µM | CC50 (MOLT-4): > 100 µM | Percent Growth (MALME-3M; Log10 Concentration −4.0): −67% | Percent Growth (MALME-3M; Log10 Concentration −5.0): −5% | Percent Growth (MALME-3M; Log10 Concentration −6.0): 99% | Percent Growth (MALME-3M; Log10 Concentration −7.0): 108% | Percent Growth (MALME-3M; Log10 Concentration −8.0): 106% | GI50 (MALME-3M; NCI five dose): 2.95 µM | TGI (MALME-3M; NCI five dose): 8.96E−5 | CC50 (NCI-H522): 5.99 µM | CC50 (SF-295): 71 µM | CC50 (NCI-H226): 76.1 µM | CC50 (HCT-15 [1]): 32.6 µM | CC50 (HOP-62): 74.9 µM | Percent Growth (HCT-15 [2]; Log10 Concentration −4.0): −70% | Percent Growth (HCT-15 [2]; Log10 Concentration −5.0): −29% | Percent Growth (HCT-15 [2]; Log10 Concentration −6.0): 74% | Percent Growth (HCT-15 [2]; Log10 Concentration −7.0): 91% | Percent Growth (HCT-15 [2]; Log10 Concentration −8.0): 90% | GI50 (HCT-15 [2]; NCI five dose): 1.7 µM | TGI (HCT-15 [2]; NCI five dose): 5.22E−6 | CC50 (SNB-75): 57 µM | CC50 (CAKI-1): 36.2 µM | CC50 (OVCAR-5): 49.9 µM | CC50 (A498): 45.2 µM | CC50 (PC-3): 69.1 µM | Percent Growth (RPMI-8226; Log10 Concentration −4.0): −34% | Percent Growth (RPMI-8226; Log10 Concentration −5.0): 28% | Percent Growth (RPMI-8226; Log10 Concentration −6.0): 96% | Percent Growth (RPMI-8226; Log10 Concentration −7.0): 98% | Percent Growth (RPMI-8226; Log10 Concentration −8.0): 101% | GI50 (RPMI-8226; NCI five dose): 4.74 µM | TGI (RPMI-8226; NCI five dose): 2.82E−5 | CC50 (SW-620): 42.6 µM | CC50 (MDA-MB-435): 61.9 µM | CC50 (HOP-92): 36.4 µM | CC50 (IGROV1): 94 µM | CC50 (SF-268): 69.1 µM | CC50 (UACC-257): 47 µM | CC50 (SK-MEL-5): 47.8 µM | CC50 (A549/ATCC): 75.9 µM | CC50 (M14): 49.3 µM | CC50 (OVCAR-8): 42.9 µM | CC50 (SK-MEL-28): 44.5 µM | CC50 (CCRF-CEM): 58.6 µM | CC50 (RXF 393): 9.41 µM | CC50 (SR): > 100 µM
